This note sets out measurements from publication PMC8498988, “Scaffold Hybridization Strategy Leads to the Discovery of Dopamine D3 Receptor-Selective or Multitarget Bitopic Ligands Potentially Useful for Central Nervous System Disorders” (ACS Chemical Neuroscience, 2021).

Counter-ions that a name gives are not always drawn. Marks after values point to notes of the source that are not given here.

Data set [1] concerns the target D3R (Homo sapiens, UniProt P35462). Description: Radioligand competition binding at human D3R ([3H]N-methylspiperone, HEK293 membranes). Further details: expressed in transfected cells; host or cells: HEK293. The following applies: for Ki: HEK 293 cells expressing hD3R, read-out: Ki ± SEM, D3R; for D2/D3: ratio of Ki values D2R/D3R; for D4/D3: ratio of Ki values D4R/D3R. The protocol: (§1) The novel hybrid derivatives 3–11 were tested at hD2R, hD3R, or hD4R stably expressed in HEK293 cells by competition binding assays, using [^3H]N-methylspiperone as the radioligand, to evaluate their D2-like affinity and subtype selectivity, following the previously reported procedures.[41],[45],[46]
(§2) Binding at dopamine D2-like receptors was determined using previously described methods.[41],[45],[46] Membranes were prepared from HEK293 cells stably expressing human D2, D3, or D4, grown in a 50:50 mix of Dulbecco’s minimal essential medium (DMEM) and Ham’s F12 culture media, supplemented with 20 mM HEPES, 2 mM L-glutamine, 0.1 mM nonessential amino acids, 1× antibiotic/antimycotic, 10% heat-inactivated fetal bovine serum, and 200 μg/mL hygromycin (Life Technologies, Grand Island, NY) and kept in an incubator at 37 °C and 5% CO2. Upon reaching 80–90% confluency, the cells were harvested using premixed Earle’s Balanced Salt Solution (EBSS) with 5 μM EDTA (Life Technologies) and centrifuged at 3000 rpm for 10 min at 21 °C. The supernatant was removed, and the pellet was resuspended in 10 mL hypotonic lysis buffer (5 mM MgCl2, 5 mM Tris, pH 7.4 at 4 °C) and centrifuged at 20,000 rpm for 30 min at 4 °C. The pellet was then resuspended in fresh EBSS buffer made from 8.7 g/L Earle’s Balanced Salts without phenol red (US Biological, Salem, MA), 2.2 g/L sodium bicarbonate, pH to 7.4. A Bradford protein assay (Bio-Rad, Hercules, CA) was used to determine the protein concentration, and membranes were diluted to 500 μg/mL and stored at −80 °C for later use. Radioligand competition binding experiments were conducted using thawed membranes. Test compounds were freshly dissolved in 30% DMSO and 70% H2O to a stock concentration of 100 μM. To assist the solubilization of free-base compounds, 10 μL of glacial acetic acid was added along with DMSO. Each test compound was then diluted into 13 half-log serial dilutions using 30% DMSO vehicle; the final test concentrations ranged from 10 μM to 10 pM. The previously frozen membranes were diluted in fresh EBSS to a 100 μg/mL (for D2 or D3) or 200 μg/mL (D4) stock for binding. Radioligand competition experiments were conducted in glass tubes containing 300 μL of fresh EBSS buffer, 50 μL of diluted test compound, 100 μL of membranes (10 μg of total protein for D2 or D3 and 20 μg of total protein for D4), and 50 μL of [^3H]N-methylspiperone (0.4 nM final concentration; PerkinElmer). Nonspecific binding was determined using 10 μM butaclamol (Sigma-Aldrich, St. Louis, MO), and total binding was determined with the 30% DMSO vehicle. All compound dilutions were tested in triplicate and the reaction was incubated for 1 h at room temperature. The reaction was terminated by filtration through Whatman GF/B filters, presoaked for 1 h in 0.5% polyethylenimine, using a Brandel R48 filtering manifold (Brandel Instruments, Gaithersburg, MD). The filters were washed three times with 3 mL of ice-cold EBSS buffer and transferred to scintillation vials. CytoScint liquid scintillation cocktail (3 mL, MP Biomedicals, Solon, OH) was added, and vials were counted using a PerkinElmer Tri-Carb 2910 TR liquid scintillation counter (Waltham, MA).
For orientation: Displacement assays read how much labelled ligand stays bound in the presence of the test substance.

Data set [2] addresses D2R (Homo sapiens, UniProt P14416). Description: Radioligand competition binding at human D2R ([3H]N-methylspiperone, HEK293 membranes). The arrangement: expressed in transfected cells; host or cells: HEK293. The following applies: for inhibition at 10 µM / inhibition percentage of the radioligand binding, D2R: test compound concentration of 10 μM; for inhibition at 10 µM: read-out: inhibition percentage of the radioligand binding, D2R; for inhibition percentage of the radioligand binding, D2R: 10 µM; for Ki: HEK 293 cells expressing hD2R, read-out: Ki ± SEM, D2R. The protocol: as §1, §2

Data set [3] addresses T1, D4R (Homo sapiens, UniProt P21917).
T1 sequence (P21917 1-419): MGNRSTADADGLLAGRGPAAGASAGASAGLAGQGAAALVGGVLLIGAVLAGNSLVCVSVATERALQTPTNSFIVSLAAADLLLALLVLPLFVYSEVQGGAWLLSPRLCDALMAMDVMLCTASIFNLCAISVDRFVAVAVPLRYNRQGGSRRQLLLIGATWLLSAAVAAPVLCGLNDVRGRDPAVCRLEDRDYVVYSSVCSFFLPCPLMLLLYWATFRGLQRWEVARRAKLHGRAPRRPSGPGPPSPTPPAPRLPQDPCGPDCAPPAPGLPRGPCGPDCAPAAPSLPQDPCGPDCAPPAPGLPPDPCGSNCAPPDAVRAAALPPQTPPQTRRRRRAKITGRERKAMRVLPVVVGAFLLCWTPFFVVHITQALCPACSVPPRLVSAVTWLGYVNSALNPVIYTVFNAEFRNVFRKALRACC
The data set can be described thus: Radioligand competition binding at human D4R ([3H]N-methylspiperone, HEK293 membranes). Further details: expressed in transfected cells; host or cells: HEK293. Particulars: for inhibition at 10 µM / inhibition percentage of the radioligand binding, D4R: test compound concentration of 10 μM; for inhibition at 10 µM: read-out: inhibition percentage of the radioligand binding, D4R; for inhibition percentage of the radioligand binding, D4R: 10 µM; for Ki: HEK 293 cells expressing hD4R, read-out: Ki ± SEM, D4R. The procedure: as §1, §2

Sequence of D3R (P35462 whole entry): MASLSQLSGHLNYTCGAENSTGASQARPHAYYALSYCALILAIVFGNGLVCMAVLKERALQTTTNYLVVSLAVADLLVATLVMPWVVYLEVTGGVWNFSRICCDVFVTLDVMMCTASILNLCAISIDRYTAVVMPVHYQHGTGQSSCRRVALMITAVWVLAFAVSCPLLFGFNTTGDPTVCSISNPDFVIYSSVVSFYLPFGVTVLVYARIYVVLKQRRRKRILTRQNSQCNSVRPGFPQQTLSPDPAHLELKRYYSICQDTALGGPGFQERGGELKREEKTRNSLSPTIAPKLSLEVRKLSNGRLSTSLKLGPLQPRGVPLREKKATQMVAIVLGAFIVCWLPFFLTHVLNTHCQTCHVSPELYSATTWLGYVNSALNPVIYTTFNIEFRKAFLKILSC
Sequence of D2R (P14416 whole entry): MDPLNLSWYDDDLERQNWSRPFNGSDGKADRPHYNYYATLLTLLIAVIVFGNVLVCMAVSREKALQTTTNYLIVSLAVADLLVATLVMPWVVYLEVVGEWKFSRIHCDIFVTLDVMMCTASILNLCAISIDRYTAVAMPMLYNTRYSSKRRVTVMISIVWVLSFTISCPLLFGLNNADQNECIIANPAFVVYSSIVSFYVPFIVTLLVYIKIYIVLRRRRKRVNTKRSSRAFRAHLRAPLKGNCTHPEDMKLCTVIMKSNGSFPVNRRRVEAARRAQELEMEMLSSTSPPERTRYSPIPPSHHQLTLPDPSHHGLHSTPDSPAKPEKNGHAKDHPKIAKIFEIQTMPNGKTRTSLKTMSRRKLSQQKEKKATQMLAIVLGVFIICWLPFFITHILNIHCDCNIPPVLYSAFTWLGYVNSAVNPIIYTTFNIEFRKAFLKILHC

`O=C(NCCC(F)CN1CCN(c2cccc(Cl)c2Cl)CC1)C1COc2ccccc2O1` (centres unmarked) (as salt: oxalate) [11a, N-(4-(4-(2,3-Dichlorophenyl)piperazin-1-yl)-3-fluorobutyl)-2,3-dihydrobenzo[b][1,4]dioxine-2-carboxamide]: the melting point was 200 to 201 °C.

The molecule `O=C(NCCCCN1CCN(c2cccc(Cl)c2Cl)CC1)C1COCC(c2ccccc2)(c2ccccc2)O1` (centres unmarked) (as salt: oxalate) [compound 3, N-(4-(4-(2,3-Dichlorophenyl)piperazin-1-yl)butyl)-6,6-diphenyl-1,4-dioxane-2-carboxamide] gave a melting point of 107 to 108 °C.

Regarding `O=C(NCCC(F)CN1CCN(c2cccc(Cl)c2Cl)CC1)C1COCC(c2ccccc2)(c2ccccc2)O1` (centres unmarked) (as salt: oxalate) [compound 5, N-(4-(4-(2,3-Dichlorophenyl)piperazin-1-yl)-3-fluorobutyl)-6,6-diphenyl-1,4-dioxane-2-carboxamide], the melting point is 100 to 101 °C.

With `O=C(NCCCCN1CCN(c2cccc(Cl)c2Cl)CC1)C1COC(c2ccccc2)(c2ccccc2)CO1` (centres unmarked) (as salt: oxalate) [compound 6, N-(4-(4-(2,3-Dichlorophenyl)piperazin-1-yl)butyl)-5,5-diphenyl-1,4-dioxane-2-carboxamide], the melting point lay in the range of 94 to 95 °C.

Take `O=C(NCCC(O)CN1CCN(c2cccc(Cl)c2Cl)CC1)C1COC(c2ccccc2)(c2ccccc2)CO1` (centres unmarked) (as salt: oxalate) [compound 7, N-(4-(4-(2,3-Dichlorophenyl)piperazin-1-yl)-3-hydroxybutyl)-5,5-diphenyl-1,4-dioxane-2 Carboxamide]: the melting point lay within 132 to 133 °C.

The molecule `O=C(NCCC(F)CN1CCN(c2cccc(Cl)c2Cl)CC1)C1COC(c2ccccc2)(c2ccccc2)CO1` (centres unmarked) (as salt: oxalate) [compound 8, N-(4-(4-(2,3-Dichlorophenyl)piperazin-1-yl)-3-fluorobutyl)-5,5-diphenyl-1,4-dioxane-2-carboxamide] registered a melting point of 126 to 127 °C.

The molecule `O=C(NCCCCN1CCN(c2cccc(Cl)c2Cl)CC1)C1COc2ccccc2O1` (centres unmarked) (as salt: oxalate) [compound 9, N-(4-(4-(2,3-Dichlorophenyl)piperazin-1-yl)butyl)-2,3-dihydrobenzo[b][1,4]dioxine-2-carboxamide] gave a melting point of 167 to 168 °C.

As to `O=C(NCCC(O)CN1CCN(c2cccc(Cl)c2Cl)CC1)C1COCC(c2ccccc2)(c2ccccc2)O1` (single isomer, unassigned) (as salt: oxalate) [4a, N-(4-(4-(2,3-Dichlorophenyl)piperazin-1-yl)-3-hydroxybutyl)-6,6-diphenyl-1,4-dioxane-2-carboxamide], the melting point was in the range of 146 to 147 °C.

Turning to `O=C(NCCC(O)CN1CCN(c2cccc(Cl)c2Cl)CC1)C1COCC(c2ccccc2)(c2ccccc2)O1` (centres unmarked) [4a, N-(4-(4-(2,3-Dichlorophenyl)piperazin-1-yl)-3-hydroxybutyl)-6,6-diphenyl-1,4-dioxane-2-carboxamide], the Ki in data set [1] ([3H]N-methylspiperone) is 164 ± 52 nM. For the same molecule, the inhibition at 10 µM came to 39.5% in data set [2] and 39.2% in data set [3].

Consider `O=C(NCCC(O)CN1CCN(c2cccc(Cl)c2Cl)CC1)C1COCC(c2ccccc2)(c2ccccc2)O1` (centres unmarked) [4b, N-(4-(4-(2,3-Dichlorophenyl)piperazin-1-yl)-3-hydroxybutyl)-6,6-diphenyl-1,4-dioxane-2-carboxamide], for which the Ki in data set [1] ([3H]N-methylspiperone) was determined as 77.1 ± 25.5 nM. For the same molecule, the “inhibition percentage of the radioligand binding, D2R” value in data set [2] was determined as 41% ^c. Further, the “inhibition percentage of the radioligand binding, D4R” value in data set [3] was 54.4% ^c.

Consider `O=C(NCCC(O)CN1CCN(c2cccc(Cl)c2Cl)CC1)C1COc2ccccc2O1` (centres unmarked) [10a, N-(4-(4-(2,3-Dichlorophenyl)piperazin-1-yl)-3-hydroxybutyl)-2,3-dihydrobenzo[b][1,4]dioxine-2-carboxamide], for which the figures for the inhibition constant Ki in data set [1] ([3H]N-methylspiperone), in data set [2] and in data set [3] were 44.1 ± 8.2 nM, 1100 ± 125 nM and 282 ± 76 nM, respectively. In data set [1], the D2/D3 came to 25. The D4/D3 in data set [1] is 6.

As to `O=C(NCCC(O)CN1CCN(c2cccc(Cl)c2Cl)CC1)C1COc2ccccc2O1` (centres unmarked) [10b, N-(4-(4-(2,3-Dichlorophenyl)piperazin-1-yl)-3-hydroxybutyl)-2,3-dihydrobenzo[b][1,4]dioxine-2-carboxamide], the Ki in data set [1] ([3H]N-methylspiperone) is 23.4 ± 2.4 nM; in data set [2], 783 ± 19 nM; in data set [3], 244 ± 54 nM. Further, the D4/D3 in data set [1] was 10.

As for `O=C(NCCC(F)CN1CCN(c2cccc(Cl)c2Cl)CC1)C1COc2ccccc2O1` (centres unmarked) [11a, N-(4-(4-(2,3-Dichlorophenyl)piperazin-1-yl)-3-fluorobutyl)-2,3-dihydrobenzo[b][1,4]dioxine-2-carboxamide], the inhibition at 10 µM in data set [1] (test compound concentration of 10 μM, [3H]N-methylspiperone, read-out: inhibition percentage of the radioligand binding, D3R) was 54.8%; in data set [2], 10.6%; in data set [3], 29.4%.

In the case of `O=C(NCCC(F)CN1CCN(c2cccc(Cl)c2Cl)CC1)C1COc2ccccc2O1` (centres unmarked) [11b, N-(4-(4-(2,3-Dichlorophenyl)piperazin-1-yl)-3-fluorobutyl)-2,3-dihydrobenzo[b][1,4]dioxine-2-carboxamide], the “inhibition percentage of the radioligand binding, D3R” value in data set [1] (test compound concentration of 10 μM, [3H]N-methylspiperone, 10 µM) is listed as 65.4% ^c. For the same molecule, the “inhibition percentage of the radioligand binding, D2R” value in data set [2] came to 8.7% ^c. The “inhibition percentage of the radioligand binding, D4R” value in data set [3] is given as 26.6% ^c.

`O=C(NCCC(F)CN1CCN(c2cccc(Cl)c2Cl)CC1)C1COCC(c2ccccc2)(c2ccccc2)O1` (centres unmarked) [compound 5, N-(4-(4-(2,3-Dichlorophenyl)piperazin-1-yl)-3-fluorobutyl)-6,6-diphenyl-1,4-dioxane-2-carboxamide]: the Ki in data set [1] ([3H]N-methylspiperone) was determined as 716 ± 178 nM. The inhibition at 10 µM in data set [2] turned out to be 21.2%; in data set [3], 19.1%.

For `O=C(NCCC(O)CN1CCN(c2cccc(Cl)c2Cl)CC1)C1COC(c2ccccc2)(c2ccccc2)CO1` (centres unmarked) [compound 7, N-(4-(4-(2,3-Dichlorophenyl)piperazin-1-yl)-3-hydroxybutyl)-5,5-diphenyl-1,4-dioxane-2 Carboxamide], the figures for the inhibitory constant (Ki) in data set [1] ([3H]N-methylspiperone), in data set [2] and in data set [3] were 23.4 ± 3.1 nM, 526 ± 28.2 nM and 390 ± 46 nM, respectively. Further, the D2/D3 in data set [1] was 23. Besides, the D4/D3 in data set [1] is 17.

With `O=C(NCCC(F)CN1CCN(c2cccc(Cl)c2Cl)CC1)C1COC(c2ccccc2)(c2ccccc2)CO1` (centres unmarked) [compound 8, N-(4-(4-(2,3-Dichlorophenyl)piperazin-1-yl)-3-fluorobutyl)-5,5-diphenyl-1,4-dioxane-2-carboxamide], the inhibition constant Ki amounted to 295 ± 100 nM in data set [1] ([3H]N-methylspiperone) and 1200 ± 210 nM in data set [2]. Moreover, the D2/D3 in data set [1] came out at 4. For the same molecule, in data set [3], the inhibition at 10 µM was 43.6%.

For orientation: melting point means the temperature of the solid-liquid transition. The Ki is a dissociation constant, usually derived from enzyme kinetics or from competition with a known ligand. The inhibition is the drop in the measured response relative to a control, in per cent.
